Columns and labels:
[1] = biological target: T1, Beta-mannosidase (Homo sapiens) (UniProt O00462); test: Inhibition of beta-Mannosidase at 5 umol/mL
T1 sequence (whole entry): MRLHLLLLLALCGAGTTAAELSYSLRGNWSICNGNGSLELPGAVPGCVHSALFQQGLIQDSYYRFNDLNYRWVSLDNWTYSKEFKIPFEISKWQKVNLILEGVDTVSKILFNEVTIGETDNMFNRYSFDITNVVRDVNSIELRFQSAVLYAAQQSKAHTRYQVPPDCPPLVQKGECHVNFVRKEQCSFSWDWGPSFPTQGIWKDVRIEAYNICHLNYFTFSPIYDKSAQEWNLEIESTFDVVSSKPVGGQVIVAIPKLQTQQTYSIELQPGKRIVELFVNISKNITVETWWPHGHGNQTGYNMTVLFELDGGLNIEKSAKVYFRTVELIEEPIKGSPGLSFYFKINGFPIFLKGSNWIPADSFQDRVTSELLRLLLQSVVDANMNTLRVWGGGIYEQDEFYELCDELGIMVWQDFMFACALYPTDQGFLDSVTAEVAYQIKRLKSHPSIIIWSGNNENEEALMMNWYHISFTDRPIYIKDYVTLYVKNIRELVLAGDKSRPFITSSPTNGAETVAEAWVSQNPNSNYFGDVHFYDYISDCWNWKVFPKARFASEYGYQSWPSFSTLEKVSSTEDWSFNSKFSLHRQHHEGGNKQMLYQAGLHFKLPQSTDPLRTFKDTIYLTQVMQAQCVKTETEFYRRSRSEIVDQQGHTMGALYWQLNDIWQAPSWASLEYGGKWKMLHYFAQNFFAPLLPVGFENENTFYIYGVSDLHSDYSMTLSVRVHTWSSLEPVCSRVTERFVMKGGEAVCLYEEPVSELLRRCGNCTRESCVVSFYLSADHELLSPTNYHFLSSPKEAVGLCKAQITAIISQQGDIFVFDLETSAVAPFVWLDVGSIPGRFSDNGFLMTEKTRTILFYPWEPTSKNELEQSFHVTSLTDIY

[2] = biological target: T2, Alpha-glucosidase (Apis mellifera) (UniProt Q17058); test: Inhibition of family 13 alpha-glucosidase isoform III from honey bee at 1 umol/mL
T2 sequence (whole entry): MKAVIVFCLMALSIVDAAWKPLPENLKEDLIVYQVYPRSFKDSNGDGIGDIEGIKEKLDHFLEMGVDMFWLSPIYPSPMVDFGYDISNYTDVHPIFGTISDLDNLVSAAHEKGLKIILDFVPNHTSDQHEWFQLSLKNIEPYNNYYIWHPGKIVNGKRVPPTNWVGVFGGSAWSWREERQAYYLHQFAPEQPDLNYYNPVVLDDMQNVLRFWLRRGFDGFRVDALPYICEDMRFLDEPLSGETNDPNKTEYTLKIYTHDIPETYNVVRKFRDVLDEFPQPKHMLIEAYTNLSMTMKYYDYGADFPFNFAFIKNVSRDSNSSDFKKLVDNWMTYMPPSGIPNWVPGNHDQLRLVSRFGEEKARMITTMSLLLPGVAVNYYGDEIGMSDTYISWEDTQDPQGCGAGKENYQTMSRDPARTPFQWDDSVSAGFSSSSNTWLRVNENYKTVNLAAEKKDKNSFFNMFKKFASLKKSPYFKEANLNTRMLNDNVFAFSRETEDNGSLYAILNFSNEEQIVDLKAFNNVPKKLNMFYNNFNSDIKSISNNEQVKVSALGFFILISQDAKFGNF

[3] = biological target: T3, Mannosyl-oligosaccharide glucosidase (Homo sapiens) (UniProt Q13724); test: Inhibition of Glucosidase 1 (of Endoplasmic reticulum processing alpha-glucosidase) at 2 umol/mL
T3 sequence (whole entry): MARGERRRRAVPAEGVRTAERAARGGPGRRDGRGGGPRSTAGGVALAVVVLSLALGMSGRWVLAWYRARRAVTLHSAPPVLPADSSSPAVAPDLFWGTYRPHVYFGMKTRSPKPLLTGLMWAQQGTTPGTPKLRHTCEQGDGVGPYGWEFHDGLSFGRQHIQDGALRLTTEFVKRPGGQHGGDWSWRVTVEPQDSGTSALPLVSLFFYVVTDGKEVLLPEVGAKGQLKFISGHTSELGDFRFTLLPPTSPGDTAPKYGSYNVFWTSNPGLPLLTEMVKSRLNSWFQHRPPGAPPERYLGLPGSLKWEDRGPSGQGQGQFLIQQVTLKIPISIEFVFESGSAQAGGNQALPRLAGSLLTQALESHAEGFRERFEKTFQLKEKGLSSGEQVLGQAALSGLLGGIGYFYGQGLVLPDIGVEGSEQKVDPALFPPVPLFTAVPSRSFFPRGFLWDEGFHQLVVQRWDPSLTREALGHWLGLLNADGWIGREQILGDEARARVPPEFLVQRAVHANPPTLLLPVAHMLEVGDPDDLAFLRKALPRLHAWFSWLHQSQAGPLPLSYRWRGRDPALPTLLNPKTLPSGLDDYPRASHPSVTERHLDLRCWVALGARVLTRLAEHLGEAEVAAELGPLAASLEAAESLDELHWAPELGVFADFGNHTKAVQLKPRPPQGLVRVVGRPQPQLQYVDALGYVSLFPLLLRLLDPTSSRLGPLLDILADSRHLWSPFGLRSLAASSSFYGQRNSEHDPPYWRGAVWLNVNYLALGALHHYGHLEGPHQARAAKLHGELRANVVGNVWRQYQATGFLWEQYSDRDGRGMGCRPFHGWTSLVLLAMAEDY

[4] = species on record: Homo sapiens; test: Inhibition of alpha-Galactosidase at 5 umol/mL
[5] = biological target: T4, Beta-galactosidase (Homo sapiens) (UniProt P16278); test: Inhibition of beta-Galactosidase at 5 umol/mL
T4 sequence (whole entry): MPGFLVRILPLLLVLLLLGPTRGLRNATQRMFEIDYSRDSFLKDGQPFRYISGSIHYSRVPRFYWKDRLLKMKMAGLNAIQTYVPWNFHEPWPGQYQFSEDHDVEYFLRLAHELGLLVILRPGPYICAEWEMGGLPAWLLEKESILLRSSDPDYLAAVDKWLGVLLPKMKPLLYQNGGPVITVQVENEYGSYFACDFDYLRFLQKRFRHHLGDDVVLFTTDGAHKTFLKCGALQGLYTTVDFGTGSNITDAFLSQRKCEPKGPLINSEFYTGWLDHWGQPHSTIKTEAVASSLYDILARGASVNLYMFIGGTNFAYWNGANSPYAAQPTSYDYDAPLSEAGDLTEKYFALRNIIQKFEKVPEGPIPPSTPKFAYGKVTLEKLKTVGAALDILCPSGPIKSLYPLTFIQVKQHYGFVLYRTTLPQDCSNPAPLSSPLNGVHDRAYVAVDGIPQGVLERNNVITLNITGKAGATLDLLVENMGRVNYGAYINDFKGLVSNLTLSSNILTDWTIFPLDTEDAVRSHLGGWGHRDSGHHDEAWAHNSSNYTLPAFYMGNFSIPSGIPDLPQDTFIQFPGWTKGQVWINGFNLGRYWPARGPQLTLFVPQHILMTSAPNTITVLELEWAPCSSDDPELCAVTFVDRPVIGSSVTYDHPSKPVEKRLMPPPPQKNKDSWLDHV

[6] = biological target: T2, Alpha-glucosidase (Apis mellifera); test: Inhibition of family 13 alpha-glucosidase isoform I from honey bee at 1 umol/mL

`CC(=O)NCC1OC(CO)C(O)C(O)C1O` (stereo not given) gave an inhibition [1] of under 1%, an inhibition [2] of under 1% and an inhibition [3] of under 1%. For the same compound, the inhibition [4] was under 1%, the inhibition [5] was under 1% and the inhibition [6] was 10.4%.

With `O=C(CCO)NCC1OC(CO)C(O)C(O)C1O` (stereo not given) the inhibition [1] was under 1%, the inhibition [2] was 3.2% and the inhibition [3] was under 1%. For the same compound, the inhibition [4] was under 1%, the inhibition [5] was under 1% and the inhibition [6] was under 1%.

`O=C(CO)NCC1OC(CO)C(O)C(O)C1O` (stereo not given) was tested, and the inhibition [1] was under 1%, the inhibition [2] was under 1% and the inhibition [3] was under 1%. The inhibition [4] was under 1%, the inhibition [5] was under 1% and the inhibition [6] was under 52.3%.

In the case of `O=C(CCCO)NCC1OC(CO)C(O)C(O)C1O` (stereo not given), the inhibition [1] is reported as under 1%, the inhibition [2] is reported as under 1% and the inhibition [3] is reported as under 1%. For the same compound, the inhibition [4] was under 1% and the inhibition [5] was under 1%.

`CC(C)(C)C(=O)NCC1OC(CO)C(O)C(O)C1O` (stereo not given) gave an inhibition [1] of under 1%, an inhibition [2] of under 1% and an inhibition [3] of under 1%. For the same compound, the inhibition [4] was under 1%, the inhibition [5] was under 1% and the inhibition [6] was under 1%.

For `O=C(NCC1OC(CO)C(O)C(O)C1O)c1ccccc1` (stereo not given), the inhibition [2] was under 1%, the inhibition [4] was under 1% and the inhibition [5] was under 1%. It also gave an inhibition [6] of 4.6%.

Compound `O=C(CCCCO)NCC1OC(CO)C(O)C(O)C1O` (stereo not given) has an inhibition [1] of under 1%, an inhibition [2] of under 1% and an inhibition [3] of under 1%. The inhibition [4] was under 1%, the inhibition [5] was under 1% and the inhibition [6] was 37.5%.

For `O=C(CCCCCO)NCC1OC(CO)C(O)C(O)C1O` (stereo not given), the inhibition [1] was under 1%, the inhibition [2] was under 1% and the inhibition [3] was under 1%. It also gave an inhibition [4] of under 1%, an inhibition [5] of under 1% and an inhibition [6] of under 1%.

— ChEMBL document CHEMBL1142021, “Aglycon specificity profiling of alpha-glucosidases using synthetic probes” (Bioorg Med Chem Lett, 2005)
